Values joined by “and” are separate entries in the source; they are usually repeats but may differ in a detail not shown here. Equal entries are not always repeated. Structures can show the parent of a compound that is named as a salt. Where two headings read alike, the source gives them in different places.
Experiments:
[1] = test system: 3T3 fibroblast cells; test: cells; type: cell-based, murine; details: for activity at 10 µM: Mus musculus, NIH3T3, 72 h, read-out: Mammalian (3T3) cell % growth at 10 uM
[2] = test system: T. cruzi (Tulahuen strain); test: microbe, parasite or virus in culture; type: cell-based, Trypanosoma cruzi; details: for activity at 10 µM: read-out: T. cruzi % growth @ 10 uM (Amastigotes)
Outline: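 Tulahuen parasites expressing beta-galactosidase were added (1×10^4 trypomastigotes/well) to 3T3 fibroblasts plated 24 h earlier, 4 h before compound (10 µM final).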

[3] = Trypanosoma cruzi, TULAHUEN, Fibroblast, 120 h, 10 uM, Table S2
[4] = Trypanosoma cruzi, TULAHUEN, Fibroblast, 120 h, 10 uM, Table S1
[5] = Trypanosoma cruzi, TULAHUEN, Fibroblast, Table S2, amastigotes, read-out: T. cruzi EC50
[6] = Trypanosoma cruzi, TULAHUEN, Fibroblast, read-out: T. cruzi EC50

Work on `Clc1ccc(COC(Cn2ccnc2)c2ccc(Cl)cc2Cl)c(Cl)c1` (centres unmarked) [Miconazole, 1-[2-(2,4-dichlorophenyl)-2-[(2,4-dichlorophenyl)methoxy]ethyl]-1H-imidazole] yielded an activity at 10 µM ([1]; 10 uM, Table S2) of 100% and an activity at 10 µM [2, 3] of 0.4%.
Compound `CCN(CC)C(=S)SSC(=S)N(CC)CC` [N,N-diethyl[(diethylcarbamothioyl)disulfanyl]carbothioamide] has an activity at 10 µM ([1]; 10 uM, Table S1) of 0.1% and an activity at 10 µM [2, 4] of 0.3%.
With `COC(=O)C1=C(C)NC(C)=C(C(=O)OCCN(C)Cc2ccccc2)C1c1cccc([N+](=O)[O-])c1` (centres unmarked) [NICARDIPINE, 3-{2-[benzyl(methyl)amino]ethyl} 5-methyl 2,6-dimethyl-4-(3-nitrophenyl)-1,4-dihydropyridine-3,5-dicarboxylate] the activity at 10 µM ([1]; 10 uM, Table S2) was 99.8%, the activity at 10 µM [2, 3] was 2% and the EC50 [2, 5] was 5850 nM. For the same compound, the EC50 [2, 6] was 5900 nM.
Work on `CC(CC(O)C1OC1(C)C)C1CCC2(C)C3=CCC4C(C)(C)C(=O)CCC4(C)C3CCC12C` (centres unmarked) [NILOTICIN, 14-[4-(3,3-dimethyloxiran-2-yl)-4-hydroxybutan-2-yl]-2,6,6,11,15-pentamethyltetracyclo[8.7.0.0^{2,7}.0^{11,15}]heptadec-9-en-5-one] yielded an activity at 10 µM ([1]; 10 uM, Table S2) of 100% and an activity at 10 µM [2, 3] of 2.2%.
`NC(=O)c1cc([N+](=O)[O-])cc([N+](=O)[O-])c1` [NITROMIDE, 3,5-dinitrobenzamide] was tested, and the “Mammalian (3T3) cell % growth at 10 uM” value ([1]; 10 uM, Table S2) was 97.2%, the “T. cruzi % growth @ 10 uM (Amastigotes)” value ([2]; 10 uM, Table S2) was 1.9% and the EC50 ([2]; Table S2, amastigotes, read-out: T. cruzi EC50) was 4800 nM.
Compound `CNCCC=C1c2ccccc2CCc2ccccc21` [NORTRIPTYLINE, methyl(3-{tricyclo[9.4.0.0^{3,8}]pentadeca-1(15),3,5,7,11,13-hexaen-2-ylidene}propyl)amine] has an activity at 10 µM [1] of 100%, an activity at 10 µM ([2]; Trypanosoma cruzi, TULAHUEN, Fibroblast, 120 h) of 9.7% and an EC50 ([2]; Trypanosoma cruzi, TULAHUEN, Fibroblast, read-out: T. cruzi EC50 (nM)) of 5180 nM.
Work on `CC(C1OC(C)(C)C(O)C1O)C1CCC2(C)C3=CCC4C(C)(C)C(=O)CCC4(C)C3CCC12C` (centres unmarked) [ODORATONE, 14-[1-(3,4-dihydroxy-5,5-dimethyloxolan-2-yl)ethyl]-2,6,6,11,15-pentamethyltetracyclo[8.7.0.0^{2,7}.0^{11,15}]heptadec-9-en-5-one] yielded an activity at 10 µM ([1]; 10 uM, Table S2) of 92.7% and an activity at 10 µM [2, 3] of 9.9%.
`COC1CC(OC2C(C)C(=O)OC(C)C(C)C(O)C(C)C(=O)C3(CO3)CC(C)C(OC3OC(C)CC(N(C)C)C3O)C2C)OC(C)C1O` (centres unmarked) [OLEANDOMYCIN PHOSPHATE, 14-{[4-(dimethylamino)-3-hydroxy-6-methyloxan-2-yl]oxy}-6-hydroxy-12-[(5-hydroxy-4-methoxy-6-methyloxan-2-yl)oxy]-5,7,8,11,13,15-hexamethyl-1,9-dioxaspiro[2.13]hexadecane-4,10-dione; phosphoric acid] gave an activity at 10 µM ([1]; 10 uM, Table S2) of 100% and an activity at 10 µM [2, 3] of 15.7%.
Compound `CCCCC1C(=O)N(c2ccccc2)N(c2ccc(O)cc2)C1=O` (centres unmarked) [OXYPHENBUTAZONE, 4-butyl-1-(4-hydroxyphenyl)-2-phenylpyrazolidine-3,5-dione] has an activity at 10 µM ([1]; 10 uM, Table S2) of 72.8%, an activity at 10 µM [2, 3] of 3.7% and an EC50 [2, 6] of 12000 nM.
Compound `CC(=O)OC1C(=O)C2(C)C(O)CC3OCC3(OC(C)=O)C2C(OC(=O)c2ccccc2)C2(O)CC(OC(=O)C(O)C(NC(=O)c3ccccc3)c3ccccc3)C(C)=C1C2(C)C` (centres unmarked) [PACLITAXEL, 4,12-bis(acetyloxy)-1,9-dihydroxy-15-{[2-hydroxy-3-phenyl-3-(phenylformamido)propanoyl]oxy}-10,14,17,17-tetramethyl-11-oxo-6-oxatetracyclo[11.3.1.0^{3,10}.0^{4,7}]heptadec-13-en-2-yl benzoate] has an activity at 10 µM ([1]; 10 uM, Table S1) of 58.1% and an activity at 10 µM [2, 4] of 0.2%.
For `COc1cc2c(cc1OC)-c1cc3ccc(OC)c(OC)c3c[n+]1CC2.[Cl-]` [PALMATINE, 3,4,10,11-tetramethoxy-7,8-dihydro-6000000l^5-azatetraphen-6-ylium l^3-chloridyl], the “Mammalian (3T3) cell % growth at 10 uM” value ([1]; 10 uM, Table S2) was 100.0% and 95.9% and the “T. cruzi % growth @ 10 uM (Amastigotes)” value ([2]; 10 uM, Table S2) was 8.1% and 11.5%.
Work on `COc1ccc(Cc2nccc3cc(OC)c(OC)cc23)cc1OC` [PAPAVERINE, 1-[(3,4-dimethoxyphenyl)methyl]-6,7-dimethoxyisoquinoline hydrochloride] yielded an activity at 10 µM ([1]; 10 uM, Table S2) of 93.1% and an activity at 10 µM [2, 3] of 8.4%.
In the case of `NCC(=O)c1ccccc1` [PHENACYLAMINE, 2-amino-1-phenylethan-1-one hydrochloride], the activity at 10 µM ([1]; 10 uM, Table S2) is reported as 85.5% and the activity at 10 µM [2, 3] is reported as 4.8%.
For `CCCCCCCCCCCCCC(=O)O[C@@H]1[C@@H](C)[C@@]2(O)[C@@H](C=C(CO)C[C@]3(O)C(=O)C(C)=C[C@@H]23)[C@@H]2C(C)(C)[C@]12OC(C)=O` [PHORBOL MYRISTATE ACETATE, (1S,2S,6R,10S,11R,13S,14R,15R)-13-(acetyloxy)-1,6-dihydroxy-8-(hydroxymethyl)-4,12,12,15-tetramethyl-5-oxotetracyclo[8.5.0.0^{2,6}.0^{11,13}]pentadeca-3,8-dien-14-yl tetradecanoate], the activity at 10 µM ([1]; 10 uM, Table S2) was 89.2% and the activity at 10 µM [2, 3] was 5.6%.
Work on `COc1cc(O)c2c(c1)C(=O)c1cc(C)cc(O)c1C2=O` [PHYSCION, 1,8-dihydroxy-3-methoxy-6-methyl-9,10-dihydroanthracene-9,10-dione] yielded an activity at 10 µM ([1]; 10 uM, Table S2) of 96.8% and an activity at 10 µM [2, 3] of 9.2%.
With `CN1CCC(=C2c3ccccc3Sc3ccccc32)CC1` [PIMETHIXENE, 1-methyl-4-(9H-thioxanthen-9-ylidene)piperidine] the activity at 10 µM ([1]; 10 uM, Table S2) was 98.5% and the activity at 10 µM [2, 3] was 3.9%.
In the case of `Cc1nc2ccccn2c(=O)c1CCN1CCC(C(=O)c2ccc(F)cc2)CC1` [PIRENPERONE, 3-(2-{4-[(4-fluorophenyl)carbonyl]piperidin-1-yl}ethyl)-2-methyl-4H-pyrido[1,2-a]pyrimidin-4-one], the activity at 10 µM ([1]; 10 uM, Table S2) is reported as 91.6% and the activity at 10 µM [2, 3] is reported as 23.1%.
For `CN1CCC(=C2c3ccccc3CCc3sccc32)CC1` [PIZOTYLINE MALATE, 1-methyl-4-{6-thiatricyclo[8.4.0.0^{3,7}]tetradeca-1(14),3(7),4,10,12-pentaen-2-ylidene}piperidine; 2-hydroxybutanedioic acid], the activity at 10 µM ([1]; 10 uM, Table S2) was 86.5% and the activity at 10 µM [2, 3] was 21.4%.
Compound `COc1cc2nc(N3CCN(C(=O)c4ccco4)CC3)nc(N)c2cc1OC` [PRAZOSIN HYDROCHLORIDE, 2-{4-[(furan-2-yl)carbonyl]piperazin-1-yl}-6,7-dimethoxyquinazolin-4-amine hydrochloride] has an activity at 10 µM ([1]; 10 uM, Table S2) of 70.7%, an activity at 10 µM [2, 3] of 1.8% and an EC50 [2, 5] of 8360 nM. For the same compound, the EC50 [2, 6] was < 10000 nM.
`CCCC(C(=O)OCCN(CC)CC)(c1ccccc1)c1ccccc1` [PROADIFEN, 2-(diethylamino)ethyl 2,2-diphenylpentanoate] gave an activity at 10 µM ([1]; 10 uM, Table S2) of 100% and an activity at 10 µM [2, 3] of 2.1%.
`CN(C)CCCN1c2ccccc2Sc2ccccc21` [PROMAZINE, dimethyl[3-(10H-phenothiazin-10-yl)propyl]amine hydrochloride] gave an activity at 10 µM ([1]; 10 uM, Table S2) of 98.7% and an activity at 10 µM [2, 3] of 9.2%.
`COc1cc(NC(C)CCCN)c2ncccc2c1` (centres unmarked) [Primaquine, N-(5-aminopentan-2-yl)-6-methoxyquinolin-8-amine; bis(phosphoric acid)] gave an activity at 10 µM ([1]; 10 uM, Table S2) of 91.1%, an activity at 10 µM [2, 3] of 4.7% and an EC50 ([2]; Trypanosoma cruzi, TULAHUEN, Fibroblast, 120 h, intracellular amastigotes, 5 days, separate assays separated by semicolons, read-out: T. cruzi EC50) of 300 nM.
`COC(=O)C1C2CC3c4[nH]c5cc(OC)ccc5c4CCN3CC2CC(OC(=O)c2cc(OC)c(OC)c(OC)c2)C1OC` (centres unmarked) [RESERPINE, methyl 6,18-dimethoxy-17-[(3,4,5-trimethoxyphenyl)carbonyloxy]-3,13-diazapentacyclo[11.8.0.0^{2,10}.0^{4,9}.0^{15,20}]henicosa-2(10),4(9),5,7-tetraene-19-carboxylate] was tested, and the activity at 10 µM ([1]; 10 uM, Table S2) was 100%, the activity at 10 µM [2, 3] was 4% and the EC50 [2, 5] was 5970 nM. The EC50 [2, 6] was < 10000 nM.

— PMC4102417 (PLoS Neglected Tropical Diseases, 2014)
